Reference: patent publication US7846944B2, “Pyrazolo-pyridinone compounds and methods of use thereof” (Amgen Inc., priority 2007, dated 2010)
pIC50: −log10 of the molar value.

How the values were obtained:
recombinant human p38α = recombinant human p38α (Homo sapiens, UniProt Q16539); experiment: Purified and activated recombinant human p38α HTRF kinase assay; type: biochemical; conditions: 1 nM p38α, 50 μM ATP, GST-ATF2 substrate, read-out: p38a IC50
Protocol: Purified and Activated Recombinant Human p38α Assay
• Kinase Reaction Buffer: Kinase reaction buffer for p38α HTRF assays consists of 50 mM Tris-pH 7.5, 5 mM MgCl2, 0.1 mg/mL BSA, 100 μM Na3VO4 and 0.5 mM DTT. • HTRF Detection Buffer: HTRF detection buffer contains 100 mM HEPES-pH 7.5, 100 mM NaCl, 0.1% BSA, 0.05% Tween-20, and 10 mM EDTA. • Serial Dilution of Compounds: Compounds were dissolved in 100% DMSO and serially diluted (3 fold, 10 point) in a polypropylene 96-well microtiter plate (drug plate). The final starting concentration of compounds in the p38α enzymatic assays was 1 μM. Columns 6 and 12 (HI controls and LO controls respectively) in the drug plate were reserved as controls and contained only DMSO. • Kinase Reaction The p38α kinase reactions were carried out in a polypropylene 96-well black round bottom assay plate in total volume of 30 μL kinase reaction buffer. Appropriate concentration of purified and activated enzyme (recombinant human) was mixed with indicated concentration of ATP and 100 nM GST-ATF2-Avitag, in the presence or absence (HI control) of Compound. See table below for actual concentrations. In the absence of substrate, the background was measured as LO control. The reaction was allowed to incubate for 1 hour at RT. • Assay Reagent Concentrations: The final reagent concentrations were 1 nM p38α and 50 μM ATP. […] After 60 minutes incubation at room temperature, the assay plate was read in a Discovery Plate Reader. The wells were excited with coherent 320 nm light and the ratio of delayed ([…] post excitation) emissions at […] (native europium fluorescence) and 665 nm (europium fluorescence transferred to allophycocyanin—an index of substrate phosphorylation) was determined (Park et al, 1999). • Data Analysis: The proportion of substrate phosphorylated in the kinase reaction in the presence of compound compared with that phosphorylated in the presence of DMSO vehicle alone (HI control) was calculated using the formula: % control (POC)=(compound−average LO)/(average HI−average LO)*100. Data (consisting of POC and inhibitor concentration in μM) was fitted to a 4-parameter equation (y=A+((B−A)/(1+((x/C)^D))), where A is the minimum y (POC) value, B is the maximum y (POC), C is the x (compound concentration) at the point of inflection and D is the slope factor, using a Levenburg-Marquardt non-linear regression algorithm.
The inhibition constant (Ki) of the inhibitor was estimated from the IC50 (compound concentration at the point of inflection C) using the Cheng-Prussof equation: Ki=IC50/(1+S/Km), where S is the ATP substrate concentration, and Km is the Michaelis constant for ATP as determined experimentally. All results were expressed as the mean±the standard error of the mean. Data acquisition and non-linear regression algorithms were performed using Activity Base v5.2 and XL-fit software v4.1 respectively. All data was archived using Activity Base v5.2 software.

[1] = test system: production of IL-1β, IL-6, and TNF-α by PBMC activated with LPS; experiment: Lipopolysaccharide-activated PBMC cytokine production assay; type: cell-based; conditions: LPS 100 ng/mL, 18 hours, IL-1β, IL-6, TNF-α, read-out: IC50 in the whole blood PMBC assay
Protocol: Lipopolysaccharide-Activated PBMC Cytokine Production Assay
Test compounds were evaluated in vitro for the ability to inhibit the production of IL-1β, IL-6, and TNF-α by PBMC activated with bacterial lipopolysaccharide (LPS). Fresh leukocytes were obtained from a local blood bank, and peripheral blood mononuclear cells (PBMCs) were isolated by density gradient centrifugation on Ficol-Paque Plus (Pharmacia).
Preparation of Test Compound Stock Solutions
All reagents were prepared in RPMI 1640+10% v/v human AB serum+1×Pens/Strep/Glu (assay medium). Test compounds were dissolved in 100% DMSO and serially diluted in 96-well polypropylene round bottom micro titer plates (drug plate). Serial dilutions were then diluted 1:250 into assay medium to a 4× working concentration. Compound serial dilutions were half-log, 10 point titrations with a final starting concentration of 1 μM.
Treatment of Cells with Test Compounds and Activation with Lipopolysaccharide
LPS was prepared to a 4× concentration in assay medium. 100 μl of PBMC (1×10^6 cells/ml) were plated in a 96-well polystyrene flat bottom micro titer tissue culture plate and incubated with 50 μl of 4× compound serial dilution for 1 hour at 37° C., 5% CO2 in a tissue culture incubator. 50 μl 4×LPS or control was added and the plates were incubated at 37° C., 5% CO2 in a tissue culture incubator for 18 hours. The final DMSO concentration was 0.1%. The total volume was 200 μL. The final LPS concentration was 100 ng/mL. After 18 hours culture supernatants were removed and IL-1β, IL-6, and TNF-α presence in the supernatants was quantified using MSD ECL based technology.
Cytokine Measurements 20 μL of culture supernatant were added to MSD plates, and incubated for one hour at room temperature. 20 μL of detection antibody diluted in antibody diluent (1 μg/mL), and 110 μL of 2× Read Buffer P was added, and incubated for one hour at RT. Electrochemiluminescence was measured using the SECTOR HTS Imager (MSD, Gaithersburg, Md.). Data Analysis
Compound IC50 values were calculated as follows: The proportion of cytokine production in the presence of compound compared to the cytokine production in the presence of the DMSO vehicle alone (Hi control) was calculated using the formula: Percent Control (POC)=(compound−average Lo)/(average Hi−average Lo)*100.

[2] = test system: TNF-α secretion by LPS-treated THP1 cells; experiment: Lipopolysaccharide-activated THP1 cell TNF production assay; type: cell-based; conditions: Homo sapiens, THP-1; LPS, 3 hours, THP1 cells; read-out: IC50 in the THP-1 cellular TNF production assay
Protocol: Lipopolysaccharide-Activated THP1 Cell TNF Production Assay
THP1 cells were resuspended in fresh THP1 media (RPMI 1640, 10% heat-inactivated FBS, 1×PGS, 1×NEAA, plus 30 μM βME) at a concentration of 1.5×10^6 cells per mL. One hundred microliters of cells per well were plated in a polystyrene 96-well tissue culture plate. 1.5 micrograms per mL of bacterial LPS was prepared in THP1 media and transferred to the first 11 columns of a 96-well polypropylene plate. Column 12 contained only THP1 media for the LO control. Compounds were dissolved in 100% DMSO and serially diluted 3 fold in a polypropylene 96-well microtiter plate (drug plate). Columns 6 and 12 were reserved as controls (HI controls and LO controls respectively) and contained only DMSO. 10 μL of LPS followed by one microliter of inhibitor compound from the drug plate was transferred to the cell plate. The treated cells were induced to synthesize and secrete TNF-α in a 37° C. humidified incubator with 5% CO2 for 3 hours. Fifty microliters of conditioned media was transferred to a 96-well MULTI-ARRAY™ 96-well small spot plate—custom coated with MAB610 containing 100 μL of 2× Read Buffer P supplemented with 0.34 nM AF210NA polyclonal Ab labeled with ruthenium (MSD-Sulfo-TAG™-NHS ester). After an overnight incubation at room temperature with shaking, the reaction was read on the Sector Imager™ 6000. […] The amount of secreted TNF-α in the presence of AMG compounds compared with that in the presence of DMSO vehicle alone (HI control) was calculated using the formula: % control (POC)=(cpd−average LO)/(average HI−averageLO)*100. Data (consisting of POC and inhibitor concentration in μM) was fitted to a 4-parameter equation (y=A+((B−A)/(1+((x/C)^D))), where A is the minimum y (POC) value, B is the maximum y (POC), C is the x (cpd concentration) at the point of inflection and D is the slope factor) using a Levenburg-Marquardt non-linear regression algorithm.

[3] = test system: secreted IL-8 by whole blood activated with TNF-α; experiment: Inhibition of TNF-α induced IL-8 in 50% human whole blood; type: cell-based; conditions: Homo sapiens, TNF-α (1 nM) induced IL-8, 50% human whole blood; read-out: WB TNF/IL8 IC50
Protocol: Inhibition of TNF-α Induced IL-8 in 50% Human Whole Blood
Test compounds were evaluated in vitro for the ability to inhibit the production of secreted IL-8 by whole blood activated with TNF-α. Fresh human whole blood was obtained from healthy, non-medicated volunteers in sodium heparin tubes.
Compound Dilution—Assay Procedure
100 ul heparinized whole blood is plated into wells of 96 well flat bottom plates. 50 ul of either 4× compound or DMSO control (Final DMSO concentration is 0.1%) are added to the appropriate wells. Plates are incubated for 1 hour at 37 degrees Celsius. 50 ul of 4×TNF-α ([…], for a final concentration of 1 nM) or control (media alone) is added to the appropriate wells (Total volume=200 ul). Plates are incubated overnight (16-18 hours). 100 ul of supernatant is collected and stored in 96-well round bottom polypropylene plates at −80 degrees Celsius or assayed immediately for IL-8.
Cytokines are measured on antibody (Ab) sandwich ECL based 96-well detection plates. 20 ul of supernatant are added to plate and plate is sealed and shaken at RT for 1 hour. 130 ul of detection Ab cocktail is added and plates are sealed and shaken for 1 hour in the dark at RT. Plates are read on MSD Sector HTS instrument. Data are analyzed and IC50 values generated using Activity Base and XI-fit programs.

recombinant human p38α, sequence (Q16539 whole entry): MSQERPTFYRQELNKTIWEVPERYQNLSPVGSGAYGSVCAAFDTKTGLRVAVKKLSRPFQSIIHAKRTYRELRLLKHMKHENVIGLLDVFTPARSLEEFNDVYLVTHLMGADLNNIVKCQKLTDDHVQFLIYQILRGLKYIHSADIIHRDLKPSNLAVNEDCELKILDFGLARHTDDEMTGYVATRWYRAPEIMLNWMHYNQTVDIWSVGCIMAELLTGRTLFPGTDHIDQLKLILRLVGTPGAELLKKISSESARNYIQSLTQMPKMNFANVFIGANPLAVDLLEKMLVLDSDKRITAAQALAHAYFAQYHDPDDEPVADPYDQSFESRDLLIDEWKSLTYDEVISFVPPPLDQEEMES

Compound | pIC50 (recombinant human p38α) | pIC50 [2] | pIC50 [3] | pIC50 [1]
Cc1c(F)cc(C(=O)NC2CC2)cc1-c1cc2cnn(-c3c(F)cccc3F)c2n(C)c1=O [Example 2, N-cyclopropyl-3-(1-(2,6-difluorophenyl)-7-methyl-6-oxo-6,7-dihydro-1H-pyrazolo[3,4-b]pyridin-5-yl)-5-fluoro-4-methylbenzamide] | 8.74 | ≥ 6.76 | – | ≥ 6.90
Cc1c(F)cc(C(=O)Nc2ccon2)cc1-c1cc2cnn(-c3c(F)cccc3F)c2n(C)c1=O [Example 3, 3-(1-(2,6-difluorophenyl)-7-methyl-6-oxo-6,7-dihydro-1H-pyrazolo[3,4-b]pyridin-5-yl)-5-fluoro-N-3-isoxazolyl-4-methylbenzamide] | 8.62 | ≥ 6.76 | – | ≥ 6.90
Cc1c(F)cc(C(=O)NC2CC2)cc1-c1cc2cnn(-c3ccccc3Cl)c2n(C)c1=O [Example 8, 3-(1-(2-chlorophenyl)-7-methyl-6-oxo-6,7-dihydro-1H-pyrazolo[3,4-b]pyridin-5-yl)-N-cyclopropyl-5-fluoro-4-methylbenzamide] | 8.64 | ≥ 6.76 | – | ≥ 6.90
Cc1ccc(C(=O)NC2CC2)cc1-c1cc2cnn(-c3ccccc3Cl)c2n(C)c1=O [Example 12, 3-(1-(2-chlorophenyl)-7-methyl-6-oxo-6,7-dihydro-1H-pyrazolo[3,4-b]pyridin-5-yl)-N-cyclopropyl-4-methylbenzamide] | 8.74 | ≥ 6.76 | – | ≥ 6.90
Cc1ccc(C(=O)O)cc1-c1cc2cnn(-c3ccc(F)cc3F)c2n(C)c1=O [Example 41, 3-(1-(2,4-difluorophenyl)-7-methyl-6-oxo-6,7-dihydro-1H-pyrazolo[3,4-b]pyridin-5-yl)-4-methylbenzoic acid] | 6.00 | ≥ 6.76 | ≤ 5.60 | –

More lines, in order of rising pIC50 (recombinant human p38α), values ahead:

pIC50 (recombinant human p38α) | pIC50 [2] | pIC50 [3] | Compound | pIC50 [1]
6.15 | – | ≤ 5.60 | Cc1ccc(C(=O)O)cc1-c1cc2cnn(-c3c(F)cccc3F)c2n(C)c1=O [Example 38, 3-(1-(2,6-difluorophenyl)-7-methyl-6-oxo-6,7-dihydro-1H-pyrazolo[3,4-b]pyridin-5-yl)-4-methylbenzoic acid] | –
8.11 | ≥ 6.76 | ≤ 5.60 | COc1ccc(C(F)(F)F)cc1NC(=O)c1ccc(C)c(-c2cc3cnn(-c4c(F)cccc4F)c3n(C)c2=O)c1 [Example 45, 3-(1-(2,6-difluorophenyl)-7-methyl-6-oxo-6,7-dihydro-1H-pyrazolo[3,4-b]pyridin-5-yl)-4-methyl-N-(2-(methyloxy)-5-(trifluoromethyl)phenyl)benzamide] | –
8.62 | ≥ 6.76 | – | Cc1ccc(C(=O)Nc2ccon2)cc1-c1cc2cnn(-c3ccc(F)cc3F)c2n(C)c1=O [Example 27, 3-(1-(2,4-difluorophenyl)-7-methyl-6-oxo-6,7-dihydro-1H-pyrazolo[3,4-b]pyridin-5-yl)-N-3-isoxazolyl-4-methylbenzamide] | ≥ 6.90
9.00 | ≥ 6.76 | – | Cc1c(F)cc(C(N)=O)cc1-c1cc2cnn(-c3c(F)cccc3F)c2n(C)c1=O [Example 31, 3-(1-(2,6-difluorophenyl)-7-methyl-6-oxo-6,7-dihydro-1H-pyrazolo[3,4-b]pyridin-5-yl)-5-fluoro-4-methylbenzamide] | ≥ 6.90
